Where two headings read alike, the source gives them in different places.
Biological target: MAPKAPK2 (MK-2) (Homo sapiens, UniProt P49137)
Experiment: Determination of MK-2 IC50 (HSP-peptide phosphorylation, anion exchange resin capture assay)
Format: biochemical
Method: Determination of MK-2 IC50:
Recombinant MAPKAPK2 was phosphorylated at a concentration of 42-78 μM by incubation with 0.23 μM of active p38α in 50 mM HEPES, 0.1 mM EDTA, 10 mM magnesium acetate, and 0.25 mM ATP, pH 7.5 for one hour at 30° C.
The phosphorylation of HSP-peptide ([…]) by MAPKAPK2 was measured using an anion exchange resin capture assay method. The reaction was carried out in 50 mM β-glycerolphosphate, 0.04% BSA, 10 mM magnesium acetate, 2% DMSO and 0.8 mM dithiotheritol, pH 7.5 in the presence of the HSP-peptide with 0.2 μCi [γ^33P]ATP and 0.03 mM ATP. The reaction was initiated by the addition of 15 nM MAPKAPK2 and was allowed to incubate at 30° C. for 30 min. The reaction was terminated and [γ^33P]ATP was removed from solution by the addition of 150 μl of AG 1×8 ion exchange resin in 900 mM sodium formate pH 3.0. A 50 μl aliquot of head volume was removed from the quenched reaction mixture and added to a 96-well plate, 150 μl of Microscint-40 (Packard) was added and the amount of phosphorylated-peptide was determined. Allow the Microscint to sit in the plates for 60 minutes prior to counting.
Compounds are evaluated as potential inhibitors of the MK-2 kinase by measuring their effects on MK-2 phosphorylation of the peptide substrate. Compounds may be screened initially at two concentrations prior to determination of IC50 values. Screening results are expressed as percent inhibition at the concentrations of compound tested. For IC50 value determinations, Compounds are tested at six concentrations in ten-fold serial dilutions with each concentration tested in triplicate. Results are expressed as IC50 values in micromolar. The assay is performed at a final concentration of 2% DMSO.

[1] = Table 1, phenoxypyrazole MK-2 inhibitors, read-out: MK-2 Avg, IC50
[2] = Table 4, pyrimidylpyrazole MK-2 inhibitors, read-out: MK-2 Avg. IC50
[3] = Table 5, other cyclic pyrazole MK-2 inhibiting compounds, read-out: MK-2 Avg. IC50
[4] = Table 2, pyrazolylpyrazole MK-2 inhibitors, read-out: MK-2 Avg. IC50

Sequence of MAPKAPK2 (MK-2) (P49137 whole entry, species assumed): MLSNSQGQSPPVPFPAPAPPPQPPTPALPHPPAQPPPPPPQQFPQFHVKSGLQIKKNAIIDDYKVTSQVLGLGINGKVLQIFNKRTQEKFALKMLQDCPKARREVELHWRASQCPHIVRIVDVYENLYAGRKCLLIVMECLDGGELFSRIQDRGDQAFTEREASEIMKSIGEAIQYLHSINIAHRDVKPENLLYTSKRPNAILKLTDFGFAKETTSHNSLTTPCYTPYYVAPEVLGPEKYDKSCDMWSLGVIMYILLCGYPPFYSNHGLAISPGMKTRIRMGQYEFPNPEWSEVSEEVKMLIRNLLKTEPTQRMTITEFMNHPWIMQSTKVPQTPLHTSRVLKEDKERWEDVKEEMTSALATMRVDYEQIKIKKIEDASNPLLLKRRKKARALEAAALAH

Row | SMILES | IC50 (read-out: MK-2 Avg. IC50) [µM] | further results
1 | CCC(C)Nc1cc2c(cc1OC)CCc1c-2nn(CCCN)c1C(=O)O (stereo not shown) [Example 74] | – | IC50 [1]: 196 µM
2 | O=C1NCCn2nc3c(c21)CCc1cnc(CCC2CCCCC2)cc1-3 [Example 259] | 121 | –
3 | O=C1NCCn2nc3c(c21)CCc1cnc(-c2ccc(Oc4ccccc4)cc2)cc1-3 [Example 257] | 119 | –
4 | O=C1NCCCn2nc3c(c21)CCc1cnc(-c2ccccc2)nc1-3 [Example 11] | – | IC50 [2]: 81.4 µM
5 | COC(=O)c1[nH]nc2c1CCc1cc(O)c(S(=O)(=O)N(C)C)cc1-2 [Example 47] | – | IC50 [1]: 92.8 µM
6 | O=C(O)c1c2c(nn1CCCNC(c1ccccc1)(c1ccccc1)c1ccccc1)-c1nc(-c3ccccc3)ncc1CC2 [Example 10] | – | IC50 [2]: 52.2 µM
7 | N#Cc1ccc(S(=O)(=O)NCCCn2nc3c(c2C(=O)O)CCc2cnccc2-3)cc1 [Example 262] | 130 | –
8 | Cc1ccc(C(C)CCN(CCCn2nc3c(c2C(=O)O)CCc2cnccc2-3)CCC(C)c2ccc(C)o2)o1 (stereo not shown) [Example 241] | 87.9 | –
9 | O=C1NCCn2nc3c(c21)CCc1cnc(/C=C/c2ccc(O)cc2)cc1-3 [Example 3] | – | IC50 [3]: 0.164 µM
10 | O=C(NCCCn1nc2c(c1C(=O)O)CCc1cnccc1-2)c1ccco1 [Example 279] | 190 | –
11 | CCCCOc1ccc(S(=O)(=O)NCCCn2nc3c(c2C(=O)O)CCc2cnccc2-3)cc1 [Example 255] | 113 | –
12 | O=C1c2c3c(nn2CC2CCCN1C2)-c1ccncc1CC3 (stereo not shown) [Example 281] | 191 | –
13 | NCCCn1nc2c(c1CO)CCc1cnccc1-2 [Example 277] | 186 | –
14 | O=C(NCCCn1nc2c(c1C(=O)O)CCc1cnccc1-2)c1ccncc1 [Example 253] | 109 | –
15 | O=C(CCc1ccco1)NCCCn1nc2c(c1C(=O)O)CCc1cnccc1-2 [Example 256] | 116 | –
16 | O=C(O)c1c2c(nn1CCCNc1ccncc1)-c1ccncc1CC2 [Example 249] | 101 | –

Row | SMILES | IC50 (read-out: MK-2 Avg. IC50) [µM] | further results
17 | CC(C)(C)OC(=O)NC1CCN(CCCn2nc3c(c2C(=O)O)CCc2cnccc2-3)CC1 [Example 269] | 149 | –
18 | NCCCn1nc2c(c1C(=O)O)CCc1cc(O)c(Cc3ccccc3)cc1-2 [Example 29] | – | IC50 [1]: 29.6 µM
19 | O=C1c2c3c(nn2CCN1CCCc1ccccc1)-c1ccncc1CC3 [Example 251] | 102 | –
20 | O=C1NCCn2nc3c(c21)CCc1cnc(/C=C/c2ccccc2)cc1-3 [Example 2] | – | IC50 [3]: 0.147 µM
21 | CC(=O)Nc1ccc(S(=O)(=O)NCCCn2nc3c(c2C(=O)O)CCc2cnccc2-3)cc1 [Example 276] | 176 | –
22 | COC(=O)c1[nH]nc2c1C(C)Cc1cc(OC)ccc1-2 (stereo not shown) [Example 100] | – | IC50 [1]: > 200 µM
23 | CCOC(=O)c1[nH]nc2c1CCc1[nH]nc(SC)c1-2 [Example 65] | – | IC50 [4]: ≥ 200 µM
24 | CC(C)(C)c1ccc(-c2cc3c(cn2)CCc2c-3nn3c2C(=O)NCC3)cc1 [Example 248] | 101 | –
25 | O=C1NCCCn2nc3c(c21)CCc1cc(O)ccc1-3 [Example 18] | – | IC50 [1]: 17 µM
26 | COC(=O)c1c2c(nn1CCCN)-c1nc(-c3ccncc3)ncc1CC2 [Example 12] | – | IC50 [2]: 142 µM
27 | O=C(O)c1c2c(nn1CC(O)CN1CCOCC1)-c1ccncc1CC2 (stereo not shown) [Example 260] | 128 | –
28 | CCCCCCc1cc2c(cn1)CCc1c-2nn2c1C(=O)NCC2 [Example 264] | 133 | –
29 | O=C(NCCCn1nc2c(c1C(=O)O)CCc1cnccc1-2)c1ccccn1 [Example 261] | 129 | –
30 | NC(=O)CCn1nc(C(N)=O)c2c1-c1cn[nH]c1CC2 [Example 56] | – | IC50 [4]: ≥ 200 µM
31 | O=C1NCCCn2nc3c(c21)CCc1cnc(-c2ccc4c(c2)OCO4)nc1-3 [Example 7] | – | IC50 [2]: 3.14 µM
32 | COc1cc2c(cc1-c1cccc(Cl)c1)-c1nn(CCCNC(=O)OC(C)(C)C)c(C(=O)O)c1CC2 [Example 50] | – | IC50 [1]: 104 µM

More lines, in order of falling IC50 (read-out: MK-2 Avg. IC50), values ahead:

Row | IC50 (read-out: MK-2 Avg. IC50) [µM] | SMILES | further results
33 | 87.6 | NCCCn1nc2c(c1C(=O)O)CCc1c-2ccnc1-c1ccccc1 [Example 239] | –
34 | 85.2 | CSc1[nH]nc2c1CCc1cnccc1-2 [Example 237] | –
35 | 84.4 | CC1CCCN(c2cc3c(cn2)CCc2c-3nn3c2C(=O)NCC3)C1 (stereo not shown) [Example 236] | –
36 | 84.3 | O=C(O)c1c2c(nn1CC=NO)-c1ccncc1CC2 [Example 235] | –
37 | 83.4 | CSc1nccc2c1CCc1c-2nn(CCCN)c1C(=O)O [Example 234] | –
38 | 71 | O=C(O)c1c2c(nn1CC=NO)-c1ccncc1CC2 [Example 229] | –
39 | 68 | O=C(NCCCn1nc2c(c1C(=O)O)CCc1cnccc1-2)c1ccccc1 [Example 227] | –
40 | 63.4 | O=C(O)c1[nH]nc2c1CCc1cnccc1-2 [Example 224] | –
41 | 63.2 | O=C1NCCn2nc3c(c21)CCc1cnc(CCc2ccc(Cl)cc2)cc1-3 [Example 223] | –
42 | 60.7 | CN(C)CCNc1cc2c(cn1)CCc1c-2nn2c1C(=O)NCC2 [Example 220] | –
43 | 59.5 | O=C1CCCn2nc3c(c21)CCc1cnccc1-3 [Example 219] | –
44 | 56.3 | O=C(O)c1c2c(nn1CCCNCC(F)(F)F)-c1ccncc1CC2 [Example 218] | –
45 | 53.8 | O=C1NCCn2nc3c(c21)CCc1c-3ccnc1Nc1ccccc1 [Example 215] | –
46 | 53.7 | c1coc(-c2[nH]nc3c2CCc2cnccc2-3)c1 [Example 214] | –
47 | 53.5 | CCCCNC(=O)NCCCn1nc2c(c1C(=O)O)CCc1cnccc1-2 [Example 213] | –
48 | 47.9 | NC(=O)C1CCN(CCCn2nc3c(c2C(=O)O)CCc2cnccc2-3)CC1 [Example 210] | –
49 | 36 | CCOC(=O)c1c2c(nn1CCN)-c1cc(Cl)ncc1CC2 [Example 204] | –
50 | 28.2 | CS(=O)(=O)NCCCn1nc2c(c1C(=O)O)CCc1cnccc1-2 [Example 196] | –
51 | 27.7 | O=C1NCCn2nc3c(c21)CCc1c-3ccnc1Cl [Example 194] | –
52 | 27.3 | O=C1NC(CNCc2ccc(Cl)cc2)Cn2nc3c(c21)CCc1cnccc1-3 (stereo not shown) [Example 193] | –
53 | 25 | NC(CCn1nc2c(c1C(=O)O)CCc1cnccc1-2)C(=O)O (stereo not shown) [Example 191] | –

Row | IC50 (read-out: MK-2 Avg. IC50) [µM] | SMILES | further results
54 | 21.6 | O=C1NCCn2nc3c(c21)CCc1cnc(N2CCCC2)cc1-3 [Example 189] | –
55 | 21.5 | O=C(O)c1c2c(nn1CCCBr)-c1ccncc1CC2 [Example 188] | –
56 | 20 | Cc1nccc2c1CCc1c-2nn2c1C(=O)NCCC2 [Example 186] | –
57 | 19.4 | NCC1Cn2nc3c(c2C(=O)O1)CCc1cnccc1-3 (stereo not shown) [Example 185] | –
58 | 17.7 | CC(C)NCCn1nc2c(c1C(=O)O)CCc1cnccc1-2 [Example 182] | –
59 | 15.4 | O=C(NCCCn1nc2c(c1C(=O)O)CCc1cnccc1-2)NCc1ccccc1 [Example 176] | –
60 | 14.3 | O=C(O)c1c2c(nn1CCO)-c1ccncc1CC2 [Example 173] | –
61 | 14 | O=C(O)c1c2c(nn1CC(O)CNC1Cc3ccccc3C1)-c1ccncc1CC2 (stereo not shown) [Example 172] | –
62 | 12.6 | C=CCn1nc2c(c1C(=O)O)CCc1cnccc1-2 [Example 170] | –
63 | 12.3 | CCOC(=O)c1c2c(nn1CCN)-c1ccncc1CC2 [Example 169] | –
64 | 11.9 | O=C1NCCn2nc3c(c21)CCc1cnc(N2CCOCC2)cc1-3 [Example 168] | –
65 | 11 | NCCCC1CNC(=O)c2c3c(nn21)-c1ccncc1CC3 (stereo not shown) [Example 166] | –
66 | 10.7 | O=C(O)c1c2c(nn1CCCNCCc1c[nH]c3ccccc13)-c1ccncc1CC2 [Example 165] | –
67 | 10.4 | NC(=O)c1[nH]nc2c1CCc1cnccc1-2 [Example 163] | –
68 | 10.4 | O=C(O)c1c2c(nn1CCCNC1CCCC1)-c1ccncc1CC2 [Example 164] | –
69 | 10.3 | O=C(O)c1c2c(nn1CCCNCc1cccc(Cl)c1)-c1ccncc1CC2 [Example 161] | –
70 | 0.587 | COc1ccc(-c2cc3c(cn2)CCc2c-3nn3c2C(=O)NCC3)cc1 [Example 62] | –
71 | 0.453 | O=C1NCCCn2nc3c(c21)CCc1cnc(-c2cccc([N+](=O)[O-])c2)cc1-3 [Example 50] | –
72 | 0.322 | COc1cccc(-c2cc3c(cn2)CCc2c-3nn3c2C(=O)NCC3)c1 [Example 45] | –
73 | 0.0914 | CCCn1nc2c(c1C(=O)O)CCc1cnc(-c3cnc4ccccc4c3)cc1-2 [Example 20] | –

— patent US20040127492A1 (Pharmacia Corporation, priority 2002, published 2004)
